According to US5447719A, “β-glucuronidase inhibitor” (priority 1991, dated 1995):

Assays:
β-glucuronidase = target: T1, β-glucuronidase (Escherichia coli, UniProt P05804); assay: β-glucuronidase inhibition: residual activity (production of formula III compound from formula II compound, HPLC); type: biochemical; conditions: formula II substrate 100 nmol/ml, pH 6.8, 37° C., 20 min; for remaining activity at 0.0167 µM: 16.7 nM; for remaining activity at 0.0333 µM: 33.3 nM; for remaining activity at 0.1667 µM: 166.7 nM
T1 construct: purchased Sigma Chemical Co
Method: β-glucuronidase (manufactured by Sigma Chemical Co.) derived from Escherichia coli was added to a reaction solution comprising 50 μl of potassium phosphate buffer (pH: 6.8), a solution of a compound (100 nmol/ml) represented by the formula II and produced by Reference Example which will be described later and a specimen, and a reaction was allowed to proceed at 37° C. for 20 min. A glycine buffer (pH: 10.4) was added to terminate the reaction. 10 μl of the reaction mixture and 100 μl of an internal standard (camptothecin) solution were added to 1 ml of a 0.01N aqueous hydrochloric acid solution, and the mixture was applied to Bond Elute C18 (Analytichem), washed with water and 0.01N aqueous hydrochloric acid solution. Elution was effected with acetonitrile/water (1:2). 100 μl of the eluate obtained by elution with acetonitrile/water (1:2) was analyzed by high performance liquid chromatography (HPLC) under the following conditions, and the β-glucuronidase activity was calculated by using the amount of production of the compound represented by the formula III as an indication.
Apparatus: high performance liquid chromatograph HLC-803D manufactured by Toyo Soda
Analytical column: Tosoh ODS-80TM 250×4.6 mm (I.D.)
Thermostatic chamber of column: Tosoh CO-8011 40° C.
Guard column: Tosoh TSKguradgel ODS-120T
Detector: Shimazu Fluorescence HPLCMonitor RF-530
Detection wavelength: Ex380nm Em556nm
Autosampler: Tosoh AS-8000
Eluent: acetonitrile/water (1:2)

bone marrow = conditions: cited from earlier work

T1 sequence (P05804 whole entry): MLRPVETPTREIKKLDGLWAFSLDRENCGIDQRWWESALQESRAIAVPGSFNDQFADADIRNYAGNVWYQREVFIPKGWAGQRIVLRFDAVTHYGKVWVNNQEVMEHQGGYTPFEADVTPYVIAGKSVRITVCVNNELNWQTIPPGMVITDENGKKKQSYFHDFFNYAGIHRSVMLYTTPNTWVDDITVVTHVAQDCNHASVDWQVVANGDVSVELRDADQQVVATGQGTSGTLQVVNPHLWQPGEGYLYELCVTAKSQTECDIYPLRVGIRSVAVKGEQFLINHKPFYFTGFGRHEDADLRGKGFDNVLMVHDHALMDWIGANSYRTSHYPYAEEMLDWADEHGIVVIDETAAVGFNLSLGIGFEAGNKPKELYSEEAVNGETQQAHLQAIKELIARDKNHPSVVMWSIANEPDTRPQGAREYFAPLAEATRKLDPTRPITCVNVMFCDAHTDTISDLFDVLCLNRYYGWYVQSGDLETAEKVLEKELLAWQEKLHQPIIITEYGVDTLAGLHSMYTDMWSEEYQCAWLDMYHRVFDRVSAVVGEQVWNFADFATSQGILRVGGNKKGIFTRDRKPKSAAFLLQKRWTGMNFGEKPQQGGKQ

Row | Compound | remaining activity at 0.0167 µM (β-glucuronidase) | remaining activity at 0.0333 µM (β-glucuronidase) | remaining activity at 0.1667 µM (β-glucuronidase) | toxicity (bone marrow)
1 | O=C(O)[C@H]1O[C@@H](Oc2cc3oc(-c4ccccc4)cc(=O)c3c(O)c2O)[C@H](O)[C@@H](O)[C@@H]1O [Baicalin, baicalin] | 19% | 10.7% | 2.3% | –
2 | CC[C@@]1(O)C(=O)OCc2c1cc1n(c2=O)Cc2cc3ccccc3nc2-1 [Camptothecin, camptothecin] | – | – | – | strong inhibition of bone marrow
3 | O=C(O)[C@H]1O[C@@H](Oc2cc(-c3cc(=O)c4c(O)cc(O)cc4o3)ccc2O)[C@H](O)[C@@H](O)[C@@H]1O [Luteolin-3'-glucuronide, luteolin-3'-glucuronide] | 28.5% | 13.2% | 2.1% | –
4 | COc1c(O[C@@H]2O[C@H](C(=O)O)[C@@H](O)[C@H](O)[C@H]2O)cc2oc(-c3ccccc3)cc(=O)c2c1O [Oroxylin A-7-O-glucuronide, oroxylin A-7-O-glucuronide] | 31.1% | 17% | 3% | –
